Measurements: ChEMBL document CHEMBL1201862, “PubChem BioAssay data set” (2004)
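Cells were grown in 96-well plates and exposed to each compound for 48 hours at five concentrations; endpoints were interpolated linearly between bracketing concentrations, or set to the highest concentration if not reached. The concentration for 50% growth inhibition is given as GI50.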 Calls of active or inactive are those of the source. No stated cut-off is given here; in the data, active = GI50 up to about 1.1 µM and inactive = higher.

Legend:
Experiment in all cases: NCI-60 cell line screen, 48 h
[1] = test system: OVCAR-8
[2] = test system: Malme-3M
[3] = test system: SK-OV-3
[4] = test system: KM12
[5] = test system: SF-539
[6] = test system: SF-295
[7] = test system: EKVX
[8] = test system: HL-60
[9] = test system: CCRF-CEM
[10] = test system: IGROV-1
[11] = test system: HT-29
[12] = test system: HCT-15
[13] = test system: ACHN
[14] = test system: OVCAR-4
[15] = test system: SW-620
[16] = test system: HCT-116
[17] = test system: M14
[18] = test system: RPMI-8226
[19] = test system: SF-268
[20] = test system: UO-31

| Compound | GI50 [1] | GI50 [2] | GI50 [3] | GI50 [4] | GI50 [5] | GI50 [6] | GI50 [7] | GI50 [8] | GI50 [9] | GI50 [10] | GI50 [11] | GI50 [12] | GI50 [13] | GI50 [14] | GI50 [15] | GI50 [16] | GI50 [17] | GI50 [18] | GI50 [19] | GI50 [20] |
| --- | --- | --- | --- | --- | --- | --- | --- | --- | --- | --- | --- | --- | --- | --- | --- | --- | --- | --- | --- | --- |
| O=C(O)C1CCCCN1C(=O)Cc1c[nH]c2ccccc12 (stereo unspecified) | > 100 µM (inactive) | > 100 µM (inactive) | > 100 µM (inactive) | > 100 µM (inactive) | > 100 µM (inactive) | > 100 µM (inactive) | > 100 µM (inactive) | > 100 µM (inactive) | > 100 µM (inactive) | > 100 µM (inactive) | > 100 µM (inactive) | > 100 µM | > 100 µM (inactive) | > 100 µM (inactive) | > 100 µM (inactive) | > 100 µM (inactive) | > 100 µM (inactive) | > 100 µM (inactive) | > 100 µM (inactive) |  |
| Cc1ncc([N+](=O)[O-])n1CCNC(=O)CCCn1ccnc1[N+](=O)[O-] | > 100 µM (inactive) | > 100 µM (inactive) |  | > 100 µM (inactive) | > 100 µM (inactive) | > 100 µM (inactive) | > 100 µM (inactive) | > 100 µM (inactive) | > 100 µM (inactive) | > 100 µM (inactive) | > 100 µM (inactive) | > 100 µM | > 100 µM (inactive) | > 100 µM (inactive) | > 100 µM (inactive) | > 100 µM (inactive) | > 100 µM (inactive) | > 100 µM (inactive) | > 100 µM (inactive) | > 100 µM (inactive) |
| O=C1c2ccccc2N2OC3(N4CCCC4)CCCCC3C12c1ccccc1 (stereo unspecified) | 17.5 µM (inactive) | 18.8 µM (inactive) | > 100 µM (inactive) |  | 31.4 µM (inactive) | 18.3 µM (inactive) | 69.8 µM (inactive) | 19.1 µM (inactive) | 18.7 µM (inactive) | 42 µM (inactive) | 21.8 µM (inactive) | 26.4 µM | 18.5 µM (inactive) | 14.5 µM (inactive) | 17.7 µM (inactive) | 14.4 µM (inactive) | 17.6 µM (inactive) | > 100 µM (inactive) | 16.6 µM (inactive) | 39.7 µM (inactive) |
| COC(=O)C(Cc1c[nH]c2ccccc12)NP(=O)(O)OCC1OC(n2ccc(N)nc2=O)C(O)C1O (stereo unspecified) | > 100 µM (inactive) | > 100 µM (inactive) |  | > 100 µM (inactive) | > 100 µM (inactive) | > 100 µM (inactive) | > 100 µM (inactive) | > 100 µM (inactive) | 88.3 µM (inactive) | > 100 µM (inactive) | > 100 µM (inactive) | > 100 µM | > 100 µM (inactive) | > 100 µM (inactive) | > 100 µM (inactive) | > 100 µM (inactive) | > 100 µM (inactive) | > 100 µM (inactive) | > 100 µM (inactive) | > 100 µM (inactive) |
| COc1ccc(Cc2nc3cc(C(F)(F)F)ccc3n2C[C@@H]2CCCN3CCCCC23)cc1 (stereo partly specified) | 15.3 µM (inactive) | 3.18 µM (inactive) | 15.1 µM (inactive) | 13.5 µM (inactive) | 13.5 µM (inactive) | 5.82 µM (inactive) | 13.6 µM (inactive) | 4.81 µM (inactive) | 11.1 µM (inactive) | 5.42 µM (inactive) | 5.06 µM (inactive) | 14.2 µM | 6.75 µM (inactive) | 11.7 µM (inactive) | 21.3 µM (inactive) | 5.58 µM (inactive) | 2.72 µM (inactive) | 11.6 µM (inactive) |  |  |
| C[C@@H](c1ccccc1)N1CN(C(=O)OCc2ccccc2)C(C)(C)CC1=O | > 100 µM (inactive) | > 100 µM (inactive) | > 100 µM (inactive) | > 100 µM (inactive) | > 100 µM (inactive) | > 100 µM (inactive) | > 100 µM (inactive) | 66.8 µM (inactive) | > 100 µM (inactive) | > 100 µM (inactive) | > 100 µM (inactive) | > 100 µM | > 100 µM (inactive) | > 100 µM (inactive) | > 100 µM (inactive) | > 100 µM (inactive) | > 100 µM (inactive) | > 100 µM (inactive) | > 100 µM (inactive) |  |
| COc1cc(/C=C2\CCc3ccccc3C2=O)cc(OC)c1OC | 16.2 µM (inactive) | 16.4 µM (inactive) | 18.6 µM (inactive) | 13.6 µM (inactive) | 16.9 µM (inactive) | 15 µM (inactive) | 17.9 µM (inactive) | 10.7 µM (inactive) | 4.89 µM (inactive) |  | 17.5 µM (inactive) | 17.3 µM | 15.8 µM (inactive) | 23.9 µM (inactive) | 16.6 µM (inactive) | 14.1 µM (inactive) | 16.2 µM (inactive) | 3.92 µM (inactive) | 16.4 µM (inactive) | 16.8 µM (inactive) |
| O=c1[nH]nc(Cc2ccc(Cl)cc2)n1CCO | > 100 µM (inactive) | > 100 µM (inactive) | > 100 µM (inactive) | > 100 µM (inactive) | > 100 µM (inactive) | > 100 µM (inactive) | > 100 µM (inactive) | > 100 µM (inactive) |  | > 100 µM (inactive) | > 100 µM (inactive) | > 100 µM | > 100 µM (inactive) | > 100 µM (inactive) | > 100 µM (inactive) | > 100 µM (inactive) | > 100 µM (inactive) | > 100 µM (inactive) | > 100 µM (inactive) | > 100 µM (inactive) |
| O=c1[nH]c(=O)n(C2OC(CO)C(O)C(F)C2O)cc1F (stereo unspecified) | > 100 µM (inactive) | > 100 µM (inactive) | > 100 µM (inactive) |  | > 100 µM (inactive) | > 100 µM (inactive) |  | > 100 µM (inactive) | > 100 µM (inactive) |  | > 100 µM (inactive) | > 100 µM | > 100 µM (inactive) | > 100 µM (inactive) | > 100 µM (inactive) | > 100 µM (inactive) | > 100 µM (inactive) | > 100 µM (inactive) | > 100 µM (inactive) | > 100 µM (inactive) |
| N#CCc1n[nH]c2nc(SCc3ccccc3)nc(N3CCCCC3)c12 | 38.9 µM (inactive) | 24.5 µM (inactive) | 26.4 µM (inactive) | 17.7 µM (inactive) | 21.4 µM (inactive) | 19.6 µM (inactive) | 20.5 µM (inactive) | 25.8 µM (inactive) | 17.3 µM (inactive) |  | 20.3 µM (inactive) | 32.7 µM | 21.2 µM (inactive) | 19.5 µM (inactive) | 19.5 µM (inactive) | 17.7 µM (inactive) | 19.4 µM (inactive) | 27.1 µM (inactive) | 19.2 µM (inactive) | 20.1 µM (inactive) |
| CC(=O)OCCn1c(Cc2ccc(C)cc2)nn(C(C)=O)c1=O | > 100 µM (inactive) | > 100 µM (inactive) | > 100 µM (inactive) | > 100 µM (inactive) | > 100 µM (inactive) | > 100 µM (inactive) | > 100 µM (inactive) | > 100 µM (inactive) |  | > 100 µM (inactive) | > 100 µM (inactive) | > 100 µM | > 100 µM (inactive) | > 100 µM (inactive) | > 100 µM (inactive) | > 100 µM (inactive) | > 100 µM (inactive) | > 100 µM (inactive) | > 100 µM (inactive) | > 100 µM (inactive) |
